The source of these data is publication PMC9489722, “Identification and development of a subtype-selective allosteric AKT inhibitor suitable for clinical development” (Scientific Reports, 2022).

One data set has as its target CYP 1A2 (Homo sapiens, UniProt P05177). The data set can be described thus: CYP1A2 inhibition. Format: in vitro ADME.
For data set [1], the system named is MCF-7 cells. Nature of the data set: Clonogenic cell survival assay. The note with it: Homo sapiens, MCF7; MCF-7, concentration range 0.001–10 µM. Format: cell-based.
Another data set has as its target PDK1 (Homo sapiens, UniProt O15530). The data set can be described thus: SelectScreen kinase selectivity profiling, PDK1. Format: biochemical. Here is the method:
(§1) Off-target kinase activity was performed using the SelectScreen kinase profiling service against either mini 50 kinase or full 450 kinase panels using the Z’lyte and Adapta kinase activity platforms (performed by Thermofisher).

A further data set addresses CYP3A4 (Homo sapiens, UniProt P08684). The data set can be described thus: CYP3A4 inhibition. Conditions: read-out: CYP IC50, 3A4. Format: in vitro ADME.
In data set [2] the test system is panel of over 450 kinases. The data set can be described thus: SelectScreen kinase selectivity profiling, full panel. Format: biochemical. Here is the method: as §1
The test system of data set [3] is MCF-7 cells. Nature of the data set: Cell cycle flow cytometry. It is filed as cell-based. Here is the method:
MCF-7 breast cancer cells were treated with increasing concentrations of ALM301 (0.1–100 µM) for 72 h. Post treatment, media containing detached cells was collected for each sample and the remaining adherent cells detached using 0.1% EDTA in PBS. Resulting cell suspensions were incorporated with associated media, centrifuged to form a pellet, washed with 1% FCS in PBS and fixed using ice-cold ethanol. Samples were stored at 4 °C for 24 h before staining with propidium iodide (10 µg/mL) (Sigma) containing 2.5 mg/mL RNase A (Qiagen) for 30 min at 37 °C and stored overnight at 4 °C before analysis. A minimum of 10,000 cells per sample were analysed for DNA content using a FACSCalibur flow cytometer and CellQuest Pro software (Becton Dickinson).
(Flow cytometry measures light scatter and fluorescence of single cells or particles in a stream.)

In another data set the test system is A549 cells. Nature of the data set: In vitro proliferation assay (CellTiter-Glo), A549. Conditions: Homo sapiens; A549 cell line. It is filed as cell-based. Here is the method: MCF-7, T47D, NCI-H460, HCT116, LNCaP, A431, PC3, PANC-1, A549, HT29M, SKOV-3, Du145, HMEC-1, Hs888Lu, Hela, MDA-MB-231 and SW480 cells were obtained from American Type Culture Collection (ATCC). A2780, PNT2, U251MG, HFFF2 and Fr2 cells were obtained from Public Health England European Collection of Authenticated Cell Cultures (Phe ECACC). InMyoFib and NHLF cells were acquired from Lonza. Cells were then incubated with increasing concentration of inhibitor (1 nM to 100 µM) for 72 h at 37 °C. Cell viability was determined using the CellTiter-Glo Luminescent Cell Viability Assay (Promega). IC50 values were derived as previously stated.
On the technique in general: ATP-based viability assays read luminescence as a measure of living cells.

A short description of data set [4]: In vitro microsomal stability, rat. Format: in vitro ADME. Conditions: pH 7.4; rat liver microsomes; read-out: rat LM CLint. Here is the method:
(§2) Compounds (final concentration = 1 µM; final DMSO concentration = 0.1%) were incubated in 0.1 M phosphate buffer at pH 7.4 with liver microsomes (human, mouse, rat or dog; 0.5 mg of protein/mL) at 37 °C. Reactions were started by addition of NADPH in 0.1 M phosphate buffer pH 7.4 (final concentration 1 mM). Reactions were quenched by addition of ice-cold methanol and frozen. The supernatants were analysed by LC/MS/MS on a Waters Acquity I-Class coupled to a Waters Xevo TQD mass spectrometer. A Waters BEH C18 2.1 × 50 mm 1.7 µm column was used and mobile phases consisted of water and methanol containing 0.1% formic acid as modifier. Analysis was by multiple reaction monitoring and conditions were optimised for each test compound.
(Microsomes from liver hold many membrane-bound enzymes, among them those of drug oxidation.)

Another data set deals with A549 xenografts. Nature of the data set: Anti-tumour efficacy study in A549 lung cancer xenograft model. Format: in vivo, mouse. Here is the method:
For efficacy in A549 xenografts, 90 male BALB/c nude mice aged 6–8 weeks and weighing approximately 20–26 g were inoculated subcutaneously in the right flank with 1 × 10^7 A549 tumour cells (ATCC) in 0.1 mL of PBS with Matrigel (1:1) to aid tumour development. When the mean tumour size reached approximately 150 mm^3, 10 mice were randomised to each experimental group, using a randomised block approach. Groups sizes were devised based on past experience of the provider. Treatment started on Day 11 after tumour inoculation with mice receiving ALM301 (either 10, 30 or 100 mg/kg) or vehicle control. Tumour size was measured twice weekly in two dimensions using a caliper, and the volume expressed in mm^3 using the formula: V = 0.5 (a × b^2), where a and b are the long and short diameters of the tumour, respectively.

Data set [5] is described as follows: In vitro microsomal stability, human. Format: in vitro ADME. The note with it: pH 7.4; human liver microsomes; read-out: human LM CLint. Here is the method:
as §2

The nature of data set [6]: Pharmacokinetic study in Sprague–Dawley rats. Conditions: male SD rats. Format: in vivo, rat. The method, then:
Eight rats were purchased and 6 used on the PK study (3 per administration route). The remaining rats were purchased in case of mis-dosing events and were used to obtain blank biological matrix. Compounds were administered as single i.v. doses at 1 mg free base/kg or single oral doses at 5 mg free base/kg, with blood samples obtained from three rats per dose route, at 9 time-points out to 24 h post-dose. Both the intravenous and oral doses were prepared at a concentration of 1 mg free base/mL in a mixture of 5% DMSO/95% saline. Blood samples were centrifuged to give plasma. Plasma proteins were precipitated, and compounds extracted by addition of six volumes of acetonitrile containing warfarin as internal standard. Samples were centrifuged at 4000 rpm for 30 min and the supernatants were analysed on a Waters Xevo TQ mass spectrometer. Multiple Reaction Monitoring (MRM) methods were developed for each test compound using Waters IntelliStart software.
Quantification of test compounds was by extrapolation from calibration lines prepared in control rat plasma and analysed concurrently with experimental samples.
Non-compartmental analysis was performed using the software package PK Solutions 2.0 from Summit Research Services to produce the PK parameters. AUC values were calculated by the trapezoidal method.
Oral bioavailability was estimated by comparison of the drug concentration/time AUCs for individual animals after oral dosing with the mean AUC from i.v. doses.

The target in a further data set is CYP 2C9 (Homo sapiens, UniProt P11712). Nature of the data set: CYP2C9 inhibition. Format: in vitro ADME.
Sequence of CYP 2C9 (P11712 whole entry): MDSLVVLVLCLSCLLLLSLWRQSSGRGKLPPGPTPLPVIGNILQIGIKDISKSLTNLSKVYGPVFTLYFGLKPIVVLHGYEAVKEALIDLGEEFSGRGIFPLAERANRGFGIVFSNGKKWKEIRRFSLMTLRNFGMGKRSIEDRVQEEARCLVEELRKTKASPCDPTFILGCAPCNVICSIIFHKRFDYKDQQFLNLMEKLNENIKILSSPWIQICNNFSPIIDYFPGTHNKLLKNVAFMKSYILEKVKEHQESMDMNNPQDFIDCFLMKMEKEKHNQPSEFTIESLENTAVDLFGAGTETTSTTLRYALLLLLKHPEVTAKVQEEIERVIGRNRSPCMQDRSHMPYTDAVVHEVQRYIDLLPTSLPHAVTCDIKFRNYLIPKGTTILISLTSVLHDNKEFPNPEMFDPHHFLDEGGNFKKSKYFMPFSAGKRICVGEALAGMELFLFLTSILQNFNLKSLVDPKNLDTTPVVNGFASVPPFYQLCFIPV

Sequence of PDK1 (O15530 whole entry): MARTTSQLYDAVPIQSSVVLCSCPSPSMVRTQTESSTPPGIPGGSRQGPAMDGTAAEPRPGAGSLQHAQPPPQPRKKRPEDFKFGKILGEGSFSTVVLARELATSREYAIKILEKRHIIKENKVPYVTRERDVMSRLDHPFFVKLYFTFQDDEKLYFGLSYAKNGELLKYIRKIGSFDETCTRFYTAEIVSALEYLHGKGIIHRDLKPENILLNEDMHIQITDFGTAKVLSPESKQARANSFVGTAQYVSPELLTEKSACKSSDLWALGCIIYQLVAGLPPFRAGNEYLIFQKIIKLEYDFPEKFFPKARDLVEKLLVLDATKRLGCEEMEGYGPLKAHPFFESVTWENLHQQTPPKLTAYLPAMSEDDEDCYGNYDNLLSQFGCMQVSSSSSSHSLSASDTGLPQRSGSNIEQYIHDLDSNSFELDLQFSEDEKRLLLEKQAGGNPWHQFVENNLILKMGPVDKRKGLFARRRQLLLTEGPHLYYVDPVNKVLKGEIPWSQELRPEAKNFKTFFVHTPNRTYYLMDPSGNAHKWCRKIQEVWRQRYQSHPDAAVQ
Sequence of CYP3A4 (P08684 whole entry): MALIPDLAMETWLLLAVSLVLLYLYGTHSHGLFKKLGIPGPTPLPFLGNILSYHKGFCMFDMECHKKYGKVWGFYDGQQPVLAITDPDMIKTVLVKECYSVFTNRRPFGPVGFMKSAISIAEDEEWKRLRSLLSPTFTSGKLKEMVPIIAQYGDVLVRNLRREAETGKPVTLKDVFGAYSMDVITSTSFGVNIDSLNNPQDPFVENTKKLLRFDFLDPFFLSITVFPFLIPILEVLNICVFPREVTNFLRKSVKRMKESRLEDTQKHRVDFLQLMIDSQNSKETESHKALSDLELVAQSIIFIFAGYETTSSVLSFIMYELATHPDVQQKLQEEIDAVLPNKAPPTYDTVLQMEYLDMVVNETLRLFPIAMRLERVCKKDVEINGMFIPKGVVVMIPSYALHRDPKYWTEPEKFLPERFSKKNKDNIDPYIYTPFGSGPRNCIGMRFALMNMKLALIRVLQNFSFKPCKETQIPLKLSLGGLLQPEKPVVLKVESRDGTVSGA
Sequence of CYP 1A2 (P05177 whole entry): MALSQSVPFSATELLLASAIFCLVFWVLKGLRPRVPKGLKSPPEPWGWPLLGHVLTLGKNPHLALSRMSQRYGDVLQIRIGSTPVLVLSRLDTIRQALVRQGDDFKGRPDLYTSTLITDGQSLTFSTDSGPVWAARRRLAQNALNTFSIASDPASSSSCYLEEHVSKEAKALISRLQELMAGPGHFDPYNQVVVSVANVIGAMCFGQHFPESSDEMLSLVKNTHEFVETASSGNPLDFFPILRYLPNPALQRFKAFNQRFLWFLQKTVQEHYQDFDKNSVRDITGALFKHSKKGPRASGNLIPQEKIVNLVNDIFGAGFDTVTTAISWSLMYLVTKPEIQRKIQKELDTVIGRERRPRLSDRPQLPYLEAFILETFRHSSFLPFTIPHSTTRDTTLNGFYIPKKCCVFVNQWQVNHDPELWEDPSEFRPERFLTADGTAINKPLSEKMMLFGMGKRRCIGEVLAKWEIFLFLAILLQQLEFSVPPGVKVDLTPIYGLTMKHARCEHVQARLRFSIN

What is called IC50 is the concentration at which inhibition is half-maximal. For orientation: inhibition means the drop in the measured response relative to a control, in per cent. For orientation: Vd means the apparent volume that relates the amount in the body to the concentration in plasma or blood. Consider `CCN1C(=O)COc2nc(-c3ccc([C@]4(N)C[C@@H](O)C4)cc3)c(-c3ccccc3)cc21` [ALM301, 6-(4-((1S,3S)-1-amino-3-hydroxycyclobutyl)phenyl)-1-ethyl-7-phenyl-1H-pyrido[2,3-b][1,4]oxazin-2(3H)-one], for which the IC50 is more than 25 µM at CYP 1A2; 0.1 µM in the data set on MCF-7 cells [1]; more than 10 µM against PDK1 (10-point titration curve); more than 25 µM at CYP3A4; 43 µM in the data set with A549 cells; more than 25 µM against CYP 2C9. Besides, on PDK1 (read-out: % inhibition @ 10 µM, PDK1, 10 µM fixed concentration), the inhibition at 10 µM is 77%. Further, the “inhibition versus the additional 21 PH domain containing kinases” value in [2] (21 PH domain containing kinases assayed) is “did not demonstrate any inhibition”. Further, the “selectivity against a panel of over 450 kinases” value in data set [2] (fixed concentration of 10 µM) is “highly selective”. For the same compound, in the data set on MCF-7 cells [3] (MCF-7, 0.1–100 µM, 72 h), the “sub-G0 population (cell-cycle analysis)” value was “increase of sub-G0 population in a concentration dependent manner”. The “increase in sub-G0 population compared to ALM301 alone” value with MCF-7 cells [3] (MCF-7, ALM301 in combination with tamoxifen) is on record as 4.5 ×. In addition, the microsomal CLint at 1 µM in data set [4] was 3 µL/min/mg; in [5] it was 3.7 µL/min/mg. The “tolerability / body weight” value in the data set on A549 xenografts (100 mg/kg dosing group, recovered after every other day dosing) is “Moderate bodyweight loss”; with A549 xenografts (10 and 30 mg/kg dose groups), “no body weight loss or adverse effects observed”. For the same compound, the “tumour growth inhibition (TGI)” value in the data set with A549 xenografts (p.o. 10 mg/kg q.d. × 28) was determined as 23%; with A549 xenografts (p.o. 30 mg/kg q.d. × 28) it was 31%; with A549 xenografts (p.o. 100 mg/kg q.d × 3 then q.o.d. × 25), 41%. In addition, the clearance in [6] (Sprague-Dawley, rat, plasma, iv, 1 mg/kg i.v., read-out: Rat PK CL) was 19 mL/min/kg. Moreover, the Vd in data set [6] (Sprague-Dawley, rat, plasma, iv, 1 mg/kg i.v., read-out: Rat PK Vd) worked out at 13 L/kg. The “Rat PK F” value in data set [6] (1 mg/kg i.v. and 5 mg/kg p.o., AUC 0-∞) was 26%.
